Measured values: paper PMC6561338 (Organic & biomolecular chemistry, 2018)
Read-outs that look alike come from different tables or passages of the source.

How the values were obtained:
recombinant human S1PR3 = recombinant human S1PR3 (Homo sapiens, UniProt Q99500); experiment: [32P]S1P competitive binding assay, S1PR3
recombinant human S1PR2 = recombinant human S1PR2 (Homo sapiens, UniProt O95136); experiment: [32P]S1P competitive binding assay, S1PR2
recombinant human S1PR1 = recombinant human S1PR1 (Homo sapiens, UniProt P21453); experiment: [32P]S1P competitive binding assay, S1PR1; settings: for fold decrease of S1PR1 binding potency compared to 10a: ratio of IC50 values versus 10a
recombinant human S1PR5 = recombinant human S1PR5 (Homo sapiens, UniProt Q9H228); experiment: [32P]S1P competitive binding assay, S1PR5; settings: read-out: IC50 S1PR5; competition against [32P]S1P, recombinant human S1PR5 membranes; mean ± SD
recombinant human S1PR4 = molecular target: T1, recombinant human S1PR4 (Homo sapiens, UniProt O95977); experiment: [32P]S1P competitive binding assay, S1PR4; settings: read-out: IC50 S1PR4; competition against [32P]S1P, recombinant human S1PR4 membranes; mean ± SD
T1 sequence (O95977 1-384): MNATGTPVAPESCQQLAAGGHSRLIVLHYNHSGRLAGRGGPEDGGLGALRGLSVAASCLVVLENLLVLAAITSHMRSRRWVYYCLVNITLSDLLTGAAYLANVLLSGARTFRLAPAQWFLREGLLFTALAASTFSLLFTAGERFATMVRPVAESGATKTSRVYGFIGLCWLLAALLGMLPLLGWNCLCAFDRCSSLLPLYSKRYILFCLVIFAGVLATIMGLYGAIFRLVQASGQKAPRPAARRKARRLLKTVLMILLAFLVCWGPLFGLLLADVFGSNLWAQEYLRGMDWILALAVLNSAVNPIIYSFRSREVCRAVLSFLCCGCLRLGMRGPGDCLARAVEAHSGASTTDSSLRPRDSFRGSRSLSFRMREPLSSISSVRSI

[1] = read-out: IC50 S1PR1, competition against [32P]S1P, cell membranes expressing recombinant human S1PR1, mean ± SD, at least 3 independent experiments in duplicate

Chain of recombinant human S1PR1 (P21453 whole entry): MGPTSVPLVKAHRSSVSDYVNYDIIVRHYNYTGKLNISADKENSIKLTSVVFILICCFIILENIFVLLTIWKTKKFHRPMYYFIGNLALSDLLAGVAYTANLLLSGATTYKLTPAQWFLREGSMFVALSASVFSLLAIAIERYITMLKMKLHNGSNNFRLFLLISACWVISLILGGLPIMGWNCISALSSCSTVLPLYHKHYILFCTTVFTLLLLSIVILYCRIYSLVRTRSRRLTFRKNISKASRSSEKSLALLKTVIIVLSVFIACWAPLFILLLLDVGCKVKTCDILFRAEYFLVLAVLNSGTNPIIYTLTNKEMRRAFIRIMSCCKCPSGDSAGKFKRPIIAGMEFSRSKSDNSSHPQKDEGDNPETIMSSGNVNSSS
Chain of recombinant human S1PR2 (O95136 whole entry): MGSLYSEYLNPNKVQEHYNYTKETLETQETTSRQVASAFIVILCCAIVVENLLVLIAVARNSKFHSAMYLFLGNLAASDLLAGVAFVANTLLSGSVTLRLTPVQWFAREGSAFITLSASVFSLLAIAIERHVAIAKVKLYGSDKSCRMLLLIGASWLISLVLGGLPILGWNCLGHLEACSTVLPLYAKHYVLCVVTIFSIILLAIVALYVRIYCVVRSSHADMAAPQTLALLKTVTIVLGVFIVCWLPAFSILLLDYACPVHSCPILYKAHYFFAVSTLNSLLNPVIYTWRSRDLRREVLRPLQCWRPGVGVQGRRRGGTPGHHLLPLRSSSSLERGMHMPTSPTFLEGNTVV
Chain of recombinant human S1PR3 (Q99500 whole entry): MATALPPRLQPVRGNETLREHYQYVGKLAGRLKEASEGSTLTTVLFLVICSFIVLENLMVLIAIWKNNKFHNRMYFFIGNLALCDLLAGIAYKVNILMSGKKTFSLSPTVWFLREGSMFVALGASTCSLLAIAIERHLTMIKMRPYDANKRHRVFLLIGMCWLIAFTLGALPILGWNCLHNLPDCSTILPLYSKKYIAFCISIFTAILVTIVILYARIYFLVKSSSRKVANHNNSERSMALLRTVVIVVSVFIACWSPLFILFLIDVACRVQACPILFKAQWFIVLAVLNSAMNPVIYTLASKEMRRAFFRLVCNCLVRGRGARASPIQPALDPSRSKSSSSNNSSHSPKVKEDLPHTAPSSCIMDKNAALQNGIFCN
Chain of recombinant human S1PR5 (Q9H228 whole entry): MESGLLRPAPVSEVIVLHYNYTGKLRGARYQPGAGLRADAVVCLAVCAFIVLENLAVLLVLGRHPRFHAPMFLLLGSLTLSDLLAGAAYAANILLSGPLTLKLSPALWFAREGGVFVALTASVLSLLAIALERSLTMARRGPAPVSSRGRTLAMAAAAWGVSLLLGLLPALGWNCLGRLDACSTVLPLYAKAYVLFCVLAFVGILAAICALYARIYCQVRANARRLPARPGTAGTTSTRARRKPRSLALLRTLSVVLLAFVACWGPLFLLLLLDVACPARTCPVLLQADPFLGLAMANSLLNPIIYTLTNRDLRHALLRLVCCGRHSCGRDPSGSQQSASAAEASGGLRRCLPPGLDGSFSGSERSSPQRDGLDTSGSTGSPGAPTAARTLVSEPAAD

Work on OCCOCc1ccc(-c2noc(-c3ccc(OCCF)c(C(F)(F)F)c3)n2)cc1 [17a, 2-((4-(5-(4-(2-Fluoroethoxy)-3-(trifluoromethyl)phenyl)-1,2,4-oxadiazol-3-yl)benzyl)oxy)ethan-1-ol] yielded an IC50 (recombinant human S1PR3) of over 1 µM and an IC50 (recombinant human S1PR2) of over 1 µM.

For OCC(O)c1ccc(-c2noc(-c3ccc(OCCF)c(C(F)(F)F)c3)n2)cc1 (racemic) [(±)-24, (±)-1-(4-(5-(4-(2-Fluoroethoxy)-3-(trifluoromethyl)phenyl)-1,2,4-oxadiazol-3-yl)phenyl)ethane-1,2-diol], the IC50 (recombinant human S1PR1; [1]) was under 0.02 µM, the IC50 (recombinant human S1PR5) was over 1 µM and the IC50 (recombinant human S1PR3; read-out: IC50 S1PR3, competition against [32P]S1P, recombinant human S1PR3 membranes, mean ± SD) was over 1 µM. It also gave an IC50 (recombinant human S1PR4) of over 1 µM and an IC50 (recombinant human S1PR2; read-out: IC50 S1PR2, competition against [32P]S1P, recombinant human S1PR2 membranes, mean ± SD) of over 1 µM.

Compound CN(Cc1ccc(-c2noc(-c3ccc(OCCF)c(C(F)(F)F)c3)n2)cc1)CC(O)CO (racemic) [(±)-13a, (±)-3-((4-(5-(4-(2-Fluoroethoxy)-3-(trifluoromethyl)phenyl)-1,2,4-oxadiazol-3-yl)benzyl)(methyl)amino)propane-1,2-diol] has an IC50 (recombinant human S1PR1; [1]) of 0.0399 µM.

OCc1ccc(-c2noc(-c3ccc(OCCF)cc3)n2)cc1 [10c, (4-(5-(4-(2-Fluoroethoxy)phenyl)-1,2,4-oxadiazol-3-yl)-phenyl)-methanol] showed an IC50 (recombinant human S1PR1) of over 1 µM.

Work on OCCNCc1ccc(-c2noc(-c3ccc(OCCF)c(C(F)(F)F)c3)n2)cc1 [13d, 2-((4-(5-(4-(2-Fluoroethoxy)-3-(trifluoromethyl)phenyl)-1,2,4-oxadiazol-3-yl)benzyl)amino)ethan-1-ol] yielded an IC50 (recombinant human S1PR1) of 0.0482 µM.

Compound OCCOCCOCc1ccc(-c2noc(-c3ccc(OCCF)c(C(F)(F)F)c3)n2)cc1 [17b, 2-(2-((4-(5-(4-(2-Fluoroethoxy)-3-(trifluoromethyl)phenyl)-1,2,4-oxadiazol-3-yl)benzyl)oxy)ethoxy)ethan-1-ol] has an IC50 (recombinant human S1PR3) of over 1 µM and an IC50 (recombinant human S1PR2) of over 1 µM.

Work on OCc1ccc(-c2noc(-c3ccc(OCCF)c(C(F)(F)F)c3)n2)cc1 [10a, (4-(5-(4-(2-Fluoroethoxy)-3-(trifluoromethyl)phenyl)-1,2,4-oxadiazol-3-yl)phenyl)methanol] yielded an IC50 (recombinant human S1PR3) of over 1 µM and an IC50 (recombinant human S1PR2) of over 1 µM.

Work on OCCOc1ccc(-c2noc(-c3ccc(OCCF)c(C(F)(F)F)c3)n2)cc1 [20a, 2-(4-(5-(4-(2-Fluoroethoxy)-3-(trifluoromethyl)phenyl)-1,2,4-oxadiazol-3-yl)phenoxy)ethan-1-ol] yielded an IC50 (recombinant human S1PR1) of 0.0566 µM.

With N#Cc1cc(-c2nc(-c3ccc(CO)cc3)no2)ccc1OCCF [10b, 2-(2-Fluoroethoxy)-5-(3-(4-(hydroxymethyl)phenyl)-1,2,4-oxadiazol-5-yl)benzonitrile] the “fold decrease of S1PR1 binding potency compared to 10a” value (recombinant human S1PR1) was 2.3 fold.

With OCC(O)COCc1ccc(-c2noc(-c3ccc(OCCF)c(C(F)(F)F)c3)n2)cc1 (racemic) [(±)-20b, (±)-3-((4-(5-(4-(2-Fluoroethoxy)-3-(trifluoromethyl)phenyl)-1,2,4-oxadiazol-3-yl)benzyl)oxy)propane-1,2-diol] the IC50 (recombinant human S1PR1; [1]) was 0.0238 µM.

OCCOCCOCCOCc1ccc(-c2noc(-c3ccc(OCCF)c(C(F)(F)F)c3)n2)cc1 [17c, 2-(2-(2-((4-(5-(4-(2-Fluoroethoxy)-3-(trifluoromethyl)phenyl)-1,2,4-oxadiazol-3-yl)benzyl)oxy)ethoxy)ethoxy)ethan-1-ol] was tested, and the “fold decrease of S1PR1 binding potency compared to 10a” value (recombinant human S1PR1) was “approximately 16 fold”.

Compound CN(CCO)Cc1ccc(-c2noc(-c3ccc(OCCF)c(C(F)(F)F)c3)n2)cc1 [13b, 2-((4-(5-(4-(2-Fluoroethoxy)-3-(trifluoromethyl)phenyl)-1,2,4-oxadiazol-3-yl)benzyl)(methyl)amino)ethan-1-ol] has an IC50 (recombinant human S1PR1) of 0.038 µM.
